# Laboratory results from patent US20250332139A1, “PS[…] AND THEIR USE FOR TREATING […] AND NE[…] DISORDERS” (Transcend Therapeutics, Inc., priority 2021, published 2025).
# Values joined by “and” are separate entries in the source; they are usually repeats but may differ in a detail not shown here. Equal entries are not always repeated. Marks after values point to notes of the source that are not given here.
# How the values were obtained:
# [1] = biological target: norepinephrine transporter (NET) (Rattus norvegicus, UniProt Q63380); experiment: Competitive radioligand binding, [3H]nisoxetine, rat brain lysates
# norepinephrine transporter (NET), sequence (Q63380 1-617): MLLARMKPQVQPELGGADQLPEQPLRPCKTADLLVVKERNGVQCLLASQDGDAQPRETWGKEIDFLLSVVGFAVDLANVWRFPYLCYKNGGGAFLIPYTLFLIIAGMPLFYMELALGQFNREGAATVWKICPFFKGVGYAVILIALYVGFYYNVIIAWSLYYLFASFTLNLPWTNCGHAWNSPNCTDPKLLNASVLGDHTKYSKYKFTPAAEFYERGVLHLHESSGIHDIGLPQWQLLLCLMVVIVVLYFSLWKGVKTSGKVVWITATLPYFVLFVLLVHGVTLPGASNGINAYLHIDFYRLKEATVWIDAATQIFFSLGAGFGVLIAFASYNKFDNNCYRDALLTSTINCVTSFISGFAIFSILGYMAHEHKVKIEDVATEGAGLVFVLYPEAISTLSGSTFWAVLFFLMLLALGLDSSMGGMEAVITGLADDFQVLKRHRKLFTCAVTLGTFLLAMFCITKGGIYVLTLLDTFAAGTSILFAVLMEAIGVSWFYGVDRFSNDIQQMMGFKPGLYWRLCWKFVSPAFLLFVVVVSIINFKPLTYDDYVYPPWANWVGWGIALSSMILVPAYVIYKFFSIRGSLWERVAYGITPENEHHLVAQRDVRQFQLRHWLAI
# Procedure: (§1) Radioligands used were: [^3H] Citalopram (PerkinElmer NET1039250UC); [^3H] Nisoxetine (PerkinElmer NET1084250UC); [^3H] WIN35428 (PerkinElmer NET1033250UC). […] Rat brains were dissected and tissue was homogenized in cold lysis buffer, centrifged at 100×g for 2 min and the supernatant was placed in a fresh tube. Supernatant was centrifuged at 13,000×g for 10 min at 4° C. to re-pellet the cell lysate. The pellet was resuspended in fresh wash buffer (50 mM Tris-HCl; 5 mM MgCl2; 5 mM EDTA) and centrifuged a third time. The pellet was then resuspended in wash buffer containing 10% sucrose as a cryoprotectant, divided into aliquots (0.3 mL) and stored at −80° C. A sample of the homogenate was analyzed for protein content using the SIGMA® BCA assay. On the day of the assay, the membrane preparation was thawed, and the pellet resuspended in final assay buffer. […] To each well was added 150 μL membranes, 50 μL of non-specific compound or buffer and 50 μL radioligand solution in buffer. […] Ki was subsequently calculated using the Cheng-Prusoff equation.
# [2] = biological target: T1, dopamine transporter (DAT) (Rattus norvegicus, UniProt P23977); experiment: Competitive radioligand binding, [3H]WIN35428, rat brain lysates
# T1 construct: from tissue; synaptosomes for uptake and release
# T1 sequence (P23977 whole entry): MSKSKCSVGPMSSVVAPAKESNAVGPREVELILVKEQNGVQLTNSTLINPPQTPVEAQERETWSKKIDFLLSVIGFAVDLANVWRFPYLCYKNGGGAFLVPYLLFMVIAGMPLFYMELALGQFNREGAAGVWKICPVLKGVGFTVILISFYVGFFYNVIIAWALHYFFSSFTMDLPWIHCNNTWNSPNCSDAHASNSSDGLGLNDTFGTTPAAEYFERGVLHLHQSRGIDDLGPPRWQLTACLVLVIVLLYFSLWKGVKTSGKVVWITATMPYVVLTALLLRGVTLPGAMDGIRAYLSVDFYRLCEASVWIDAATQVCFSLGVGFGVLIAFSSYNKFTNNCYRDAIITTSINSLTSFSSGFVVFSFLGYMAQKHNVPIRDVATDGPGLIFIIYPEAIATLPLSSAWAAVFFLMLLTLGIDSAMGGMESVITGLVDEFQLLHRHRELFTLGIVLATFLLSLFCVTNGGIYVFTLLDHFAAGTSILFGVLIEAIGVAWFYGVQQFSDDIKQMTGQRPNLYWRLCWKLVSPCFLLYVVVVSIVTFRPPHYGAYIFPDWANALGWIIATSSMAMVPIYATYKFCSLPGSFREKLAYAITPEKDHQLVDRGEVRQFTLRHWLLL
# Procedure: as §1
# [3] = test system: patients with PTSD or MDD; healthy subjects; experiment: Methylone case series (outpatient, CGI-S/CGI-I); format: in vivo, human
# Procedure: CGI-S scale was also evaluated in a subset of patients from Cohort 2 post-treatment. Cohort 2 was evaluated for any observed or reported safety events following a single dosing session.
# Clinical Global Impressions (CGI) scale includes 2 components: CGI-S(“severity”) and CGI-I (“improvement”).
# No protected health information was disclosed, and no consent was obtained from patients for use of their archival data. Case narratives were systematically compiled from data collected as part of routine clinical work. Diagnoses were confirmed by an experienced clinician using semi-structured interviews. Baseline symptom severity was evaluated using the Clinical Global Impressions Scale-Severity (CGI-S). Symptom improvement was evaluated using the Clinical Global Impressions Scale-Improvement (CGI-I) following dosing. […] Because these case narratives were examined retrospectively from routine clinical care records, and not gathered prospectively in a research study, more specific validated rating scales for assessing PTSD symptoms were not available. Additionally, follow-up varied, with the length of follow-up ranging from one week (Case 2) to 15 years (Case 16).
smiles,measurement,setting,value
"CNC(C)C(=O)c1ccc2c(c1)OCO2 (stereo not drawn) [methylone, 3,4-methylenedioxy-N-methylcathinone]",Ki,[1],1.15 µM
same,Ki,[2],5.73 µM
same,adverse effects,"[3]; Cohort 1, 4 healthy subjects, total dose 790-870 mg in one session",no adverse effects or after-effects were observed or reported
same,patients with initial improvement at first methylone session,[3]; Cohort 2 (25 of 28 patients),~90%
same,Number of cases with highest observed CGI-I 1,"[3]; Cohort 2, N = 28",11*
same,Number of cases with highest observed CGI-I 2,"[3]; Cohort 2, N = 28",13
same,Number of cases with highest observed CGI-I 3,"[3]; Cohort 2, N = 28",4
same,Number of cases with highest observed CGI-I 4,"[3]; Cohort 2, N = 28",0
same,Number of cases with highest observed CGI-I 5,"[3]; Cohort 2, N = 28",0
same,Number of cases with highest observed CGI-I 6,"[3]; Cohort 2, N = 28",0
same,Number of cases with highest observed CGI-I 7,"[3]; Cohort 2, N = 28",0
same,number of patients achieving a CGI-I of 1 or 2,"[3]; Example 5, 21 PTSD patients",17 patients
same,tolerability,"[3]; Example 5, 21 PTSD patients, oral 100 to 1,020 mg",generally well tolerated
same,Best CGI-S post-treatment,"[3]; individual cases, Cohort 2",1 and 4 and 2 and 3
same,CGI-S max change from BL,"[3]; individual cases, Cohort 2",−3 (4×) and −4
